# In patent publication US5084442A, “Cyclic growth hormone releasing factor analogs and method for the manufacture thereof” (Hoffmann-La Roche Inc., priority 1988, dated 1992):
# Test system: dispersed rat anterior pituitary cells (release of rat growth hormone)
# Experiment: In Vitro (Cell Dispersion) Assay of GRF: growth hormone release measured by RIA
# Assay type: cell-based, rat (Sprague-Dawley)
# Settings: growth hormone release from cultured rat pituitary cells, 4 hours of incubation, peptide 0.8 to 200 fmol per ml; compared with natural GRF(1-44)-NH2 (= 1.0)
# Description: In Vitro (Cell Dispersion) Assay of GRF
# Pituitaries from 30-40 male Sprague-Dawley rats (175 g) were removed aseptically after decapitation. The anterior lobes were collected, washed 3 times in sterile Hepes buffer (0.025 M) (pH 7.35) and dispersed at 37° in 20-30 ml Hepes buffer (pH 7.35) containing collagenase (4 mg per ml) and Dispase (Protease grade II, 2 mg per ml). After gentle 100-110 min vortexing and trituration by Pasteur pipette, the dispersed cells were separated by centrifugation (150×g, 4 min) and re-suspended in Hepes buffer containing neuraminidase ([…]), and 200 µg/ml ethylenediaminetetraacetic acid (EDTA) disodium salt, pH 7.35, for 10 min.
# The cells were washed twice with plating medium and plated on multiwell-plates (1.5×10^5 cells per ml) using the following defined medium: F-12/DMEM/BGJ (6:3:1) (Gibco: 430-1700/430-1600/320-2591) with 2 g BSA/1., 2.38 g Hepes/1.50 mg PSN antibiotic mixture (Gibco Laboratories), 10 mg/l transferring (Sigma T2252) with 1.83 g NaHCO3 /l (Baker 3506). The medium in each well was supplemented either with a sample of the novel GRF peptide or natural GRF(1-44)-NH2 at concentrations ranging from 0.8 to 200 fmol per ml of medium. Control wells contained no supplement. Plating was done with this medium added with 2% fetal calf serum to ensure rapid fixation of the cells.
# On the fourth day, the cells were washed twice with the defined medium without fetal calf serum. Finally, 900 μl of defined medium was added to each well plus 100 μl of the same medium containing each individual treatment, in triplicate. After 4 hours of incubation the medium was collected and diluted as required to conduct radioimmunoassay (RIAs) for rat growth hormone.
# RIAs for rat growth hormone were conducted using Sinha's anti-murine GH immune serum and procedures according to the National Pituitary Agency using protein A to precipitate antibody antigen complex.
row,Compound,RELATIVE POTENCY
1,"CC[C@H](C)[C@H](NC(=O)[C@H](C)NC(=O)[C@H](CC(=O)O)NC(=O)[C@H](C)NC(=O)[C@@H](N)Cc1ccc(O)cc1)C(=O)N[C@@H](Cc1ccccc1)C(=O)N[C@H](C(=O)N[C@@H](CC(N)=O)C(=O)N[C@@H](CO)C(=O)N[C@@H](Cc1ccc(O)cc1)C(=O)N[C@@H](CCCNC(=N)N)C(=O)N[C@@H](CCCCN)C(=O)N[C@H](C(=O)N[C@@H](CC(C)C)C(=O)NCC(=O)N[C@@H](CCC(N)=O)C(=O)N[C@@H](CC(C)C)C(=O)N[C@@H](CO)C(=O)N[C@@H](C)C(=O)N[C@@H](CCCNC(=N)N)C(=O)N[C@@H](CCCCN)C(=O)N[C@@H](CC(C)C)C(=O)N[C@@H](CC(C)C)C(=O)N[C@@H](CCC(N)=O)C(=O)N[C@@H](CC(=O)O)C(=O)N[C@H](C(=O)N[C@@H](CCSC)C(=O)N[C@@H](CO)C(=O)N[C@@H](CCCNC(=N)N)C(=O)N[C@@H](CCC(N)=O)C(=O)N[C@@H](CCC(N)=O)C(=O)NCC(=O)N[C@@H](CCC(=O)O)C(=O)N[C@@H](CO)C(=O)N[C@@H](CC(N)=O)C(=O)N[C@@H](CCC(N)=O)C(=O)N[C@@H](CCC(=O)O)C(=O)N[C@@H](CCCNC(=N)N)C(=O)NCC(=O)N[C@@H](C)C(=O)N[C@@H](CCCNC(=N)N)C(=O)N[C@@H](C)C(=O)N[C@@H](CCCNC(=N)N)C(=O)N[C@@H](CC(C)C)C(N)=O)[C@@H](C)CC)C(C)C)[C@@H](C)O [GRF(1-44)--NH2, GRF(1-44)-NH2, reference compound]",1.0
2,"Cyclo^8,12;21,25 [Asp^8, Ala^15 ]-GRF(1-29)-NH2",2.24
3,"Cyclo^8,12;21,25 [N-MethylTyr^1,D-Ala^2, Asp^8, Ala^15 ]-GRF(1-29)-NH2",0.61
4,"Cyclo^21,21 [N-MethylTyr^1, D-Ala^2, Ala^15 ]-GRF(1-29)-NH2",1.92
5,"Cyclo^21,25 [Ala^15 ]-GRF(1-29)-NH2 [Cyclo^21,25 --[Ala^15]--GRF(1-29)--NH2]",1.27
6,"Cyclo^21,25 [D-Ala^2, Ala^15 ]-GRF(1-29)-NH2",1.99
7,"Cyclo^21,25 [desNH2 Tyr^1,Ala^15 ]-GRF(1-29)-NH2",1.47
